Reference: patent US11452725B2, “Chiral diaryl macrocycles and uses thereof” (TURNING POINT THERAPEUTICS, INC., priority 2015, dated 2022)

What was measured:
[1] = system: Ba/F3 TPR-ALK L1196M cell line; assay: Cell proliferation assay at Advanced Cellular Dynamics (CellTiter-Glo); assay type: cell-based; details: Mus musculus, BaF3, 48 hours
[2] = target: T1, BLK (Homo sapiens, UniProt P51451); assay: Biochemical kinase assay (Reaction Biology); details: 10 μM ATP
T1 construct: purchased Reaction Biology Corporation (contract assay)

[3] = target: T2, MARK3 (Homo sapiens, UniProt P27448); assay: Biochemical kinase assay (Reaction Biology); details: 10 μM ATP
T2 construct: purchased Reaction Biology Corporation (contract assay)

[4] = system: Ba/F3 EML4-ALK C1156Y cell line; assay: Cell proliferation assay (CellTiter-Glo); assay type: cell-based; details: Mus musculus, 72 hours
[5] = system: Ba/F3 EML4-ALK G1202R cell line; assay: Cell proliferation assay (CellTiter-Glo); assay type: cell-based; details: Mus musculus, 72 hours
[6] = target: T3, LCK (Homo sapiens, UniProt P06239); assay: Biochemical kinase assay (Reaction Biology); details: 10 μM ATP
T3 construct: purchased Reaction Biology Corporation (contract assay)

[7] = target: FAK (Homo sapiens, UniProt Q05397); assay: Immunoblotting cellular kinase phosphorylation assay, NCI-H2228 cells; assay type: cell-based; details: 4 hours treatment; read-out: FAK phosphorylation of NCI-H2228 cell line IC50
Description: NSCLC cell line H2228 (harboring endogenous EML4-ALK fusion gene) was cultured in RPMI medium supplemented with 10% fetal bovine serum and 100 U/mL of penicillin/streptomycin. Ba/F3 and NIH3T3 cells stably expressing ROS1, or TRKA, or TRKB, or TRKC (WT or mutant) were cultured as mentioned above. […] Cells were collected after treatment and lysed in RIPA buffer (50 mM Tris, pH 7.4, 150 mM NaCl, 1% NP-40, 0.5% Deoxycholate, 0.1% SDS) supplemented with 10 mM EDTA, 1× Halt protease and phosphatase inhibitors (Thermo Scientific). Protein lysates (approximately 20 μg) was resolved on 4-12% Bolt Bis-Tris precasted gels with MES running buffer (Life Technologies), transferred to nitrocellulose membranes using Trans-Blot Turbo Transfer System (Bio-Rad) and detected with antibodies targeting phosphorylated phosphorylated ROS1 and total ROS1 (Cell Signaling Technology), phosphorylated TRK A/B (Cell Signaling Technology), total TRKA antibody (Santa Cruz Biotechnology), phosphorylated SRC Y416 (Cell Signaling Technology), total SRC (Cell Signaling Technology), phosphorylated FAK Y576/577 (Cell Signaling Technology), total FAK (Cell Signaling Technology), phosphorylated paxillin Y118 (Cell Signaling Technology), total paxillin (Cell Signaling Technology), phosphorylated EGFR and total EGFR, CD44, and Tubulin (Sigma). […]

[8] = system: Ba/F3 EML4-ALK WT tumors; assay: Ba/F3 EML4-ALK WT subcutaneous xenograft model; assay type: in vivo, SCID/Beige mice; details: 14 days
[9] = system: HCC78 cell line; assay: Cell proliferation assay (CellTiter-Glo); assay type: cell-based; details: Homo sapiens, 72 hours, SLC34A2-ROS1 fusion gene
[10] = target: T4, HCK (Homo sapiens, UniProt P08631); assay: Biochemical kinase assay (Reaction Biology); details: 10 μM ATP
T4 construct: purchased Reaction Biology Corporation (contract assay)

[11] = system: Ba/F3 SDC4-ROS1 G2032R cell line; assay: Cell proliferation assay (CellTiter-Glo); assay type: cell-based; details: Mus musculus, BaF3; 72 hours
[12] = target: ARK5 (Homo sapiens, UniProt O60285); assay: Biochemical kinase assay (Reaction Biology); details: 10 μM ATP
[13] = system: Ba/F3 CD74-ROS1 L2026M cell line; assay: Cell proliferation assay (CellTiter-Glo); assay type: cell-based; details: Mus musculus, BaF3, 72 h, read-out: Cell proliferation of Ba/F3 CD74-ROS1 L2026M cell line IC50

ARK5, sequence (O60285 whole entry): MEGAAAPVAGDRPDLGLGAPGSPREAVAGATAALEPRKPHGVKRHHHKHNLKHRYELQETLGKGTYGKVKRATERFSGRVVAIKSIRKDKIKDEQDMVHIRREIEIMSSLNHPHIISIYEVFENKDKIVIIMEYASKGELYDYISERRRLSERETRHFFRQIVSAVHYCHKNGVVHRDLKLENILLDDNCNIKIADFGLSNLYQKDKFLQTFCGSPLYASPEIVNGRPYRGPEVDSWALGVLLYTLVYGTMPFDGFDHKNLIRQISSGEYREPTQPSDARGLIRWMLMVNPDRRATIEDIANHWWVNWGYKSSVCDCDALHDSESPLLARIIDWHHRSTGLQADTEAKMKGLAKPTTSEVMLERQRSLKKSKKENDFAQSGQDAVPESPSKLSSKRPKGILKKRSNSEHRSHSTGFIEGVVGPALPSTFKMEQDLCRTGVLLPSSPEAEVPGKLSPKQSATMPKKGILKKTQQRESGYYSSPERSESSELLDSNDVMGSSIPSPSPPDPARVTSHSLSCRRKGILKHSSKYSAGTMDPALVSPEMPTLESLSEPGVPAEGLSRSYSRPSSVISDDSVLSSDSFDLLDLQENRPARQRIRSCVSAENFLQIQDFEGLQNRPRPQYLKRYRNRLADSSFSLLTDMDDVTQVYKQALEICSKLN
T1 sequence (P51451 whole entry): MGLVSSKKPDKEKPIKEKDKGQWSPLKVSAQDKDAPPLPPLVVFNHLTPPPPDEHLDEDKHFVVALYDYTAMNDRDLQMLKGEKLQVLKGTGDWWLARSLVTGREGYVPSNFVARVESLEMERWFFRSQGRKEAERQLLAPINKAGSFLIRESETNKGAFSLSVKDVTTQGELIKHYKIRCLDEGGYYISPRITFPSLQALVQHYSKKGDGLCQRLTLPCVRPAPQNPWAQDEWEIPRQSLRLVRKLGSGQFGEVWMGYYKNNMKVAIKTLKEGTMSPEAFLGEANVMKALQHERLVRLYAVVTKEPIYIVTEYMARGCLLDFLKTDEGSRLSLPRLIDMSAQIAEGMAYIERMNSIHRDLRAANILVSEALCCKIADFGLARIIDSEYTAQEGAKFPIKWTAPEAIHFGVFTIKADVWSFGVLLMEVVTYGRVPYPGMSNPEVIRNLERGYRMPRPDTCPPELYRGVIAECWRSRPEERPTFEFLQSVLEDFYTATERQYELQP
T4 sequence (P08631 whole entry): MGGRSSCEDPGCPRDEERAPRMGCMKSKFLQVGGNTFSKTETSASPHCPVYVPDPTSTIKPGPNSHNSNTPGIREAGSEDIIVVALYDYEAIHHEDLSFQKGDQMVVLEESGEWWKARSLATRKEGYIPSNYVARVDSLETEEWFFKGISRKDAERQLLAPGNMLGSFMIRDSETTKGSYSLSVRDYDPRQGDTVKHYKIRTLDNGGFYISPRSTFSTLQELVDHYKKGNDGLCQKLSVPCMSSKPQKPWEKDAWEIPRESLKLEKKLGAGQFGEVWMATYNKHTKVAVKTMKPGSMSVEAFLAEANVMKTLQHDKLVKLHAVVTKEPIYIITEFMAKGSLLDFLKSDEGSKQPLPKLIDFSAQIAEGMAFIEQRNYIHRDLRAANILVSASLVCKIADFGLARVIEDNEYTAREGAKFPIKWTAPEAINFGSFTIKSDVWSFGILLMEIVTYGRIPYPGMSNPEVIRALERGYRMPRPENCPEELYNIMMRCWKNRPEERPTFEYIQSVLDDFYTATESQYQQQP
T2 sequence (P27448 whole entry): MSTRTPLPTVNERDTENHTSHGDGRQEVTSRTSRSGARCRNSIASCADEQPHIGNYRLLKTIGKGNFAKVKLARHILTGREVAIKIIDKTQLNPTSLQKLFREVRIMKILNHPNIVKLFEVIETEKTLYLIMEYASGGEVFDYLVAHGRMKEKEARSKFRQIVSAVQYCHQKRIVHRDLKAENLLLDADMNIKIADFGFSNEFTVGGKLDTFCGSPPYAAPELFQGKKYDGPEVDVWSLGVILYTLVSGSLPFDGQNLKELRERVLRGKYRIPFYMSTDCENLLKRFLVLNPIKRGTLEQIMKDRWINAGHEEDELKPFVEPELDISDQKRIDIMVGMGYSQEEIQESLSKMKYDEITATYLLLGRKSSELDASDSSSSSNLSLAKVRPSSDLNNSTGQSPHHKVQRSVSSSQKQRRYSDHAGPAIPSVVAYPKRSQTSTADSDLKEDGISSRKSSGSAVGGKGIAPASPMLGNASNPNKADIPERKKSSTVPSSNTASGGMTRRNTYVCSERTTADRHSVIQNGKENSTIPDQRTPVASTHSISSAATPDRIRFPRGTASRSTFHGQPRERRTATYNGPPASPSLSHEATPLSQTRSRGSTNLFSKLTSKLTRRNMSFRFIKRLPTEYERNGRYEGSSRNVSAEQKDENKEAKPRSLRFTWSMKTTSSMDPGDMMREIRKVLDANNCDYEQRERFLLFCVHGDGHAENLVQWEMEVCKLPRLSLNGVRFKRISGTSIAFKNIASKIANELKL
T3 sequence (P06239 whole entry): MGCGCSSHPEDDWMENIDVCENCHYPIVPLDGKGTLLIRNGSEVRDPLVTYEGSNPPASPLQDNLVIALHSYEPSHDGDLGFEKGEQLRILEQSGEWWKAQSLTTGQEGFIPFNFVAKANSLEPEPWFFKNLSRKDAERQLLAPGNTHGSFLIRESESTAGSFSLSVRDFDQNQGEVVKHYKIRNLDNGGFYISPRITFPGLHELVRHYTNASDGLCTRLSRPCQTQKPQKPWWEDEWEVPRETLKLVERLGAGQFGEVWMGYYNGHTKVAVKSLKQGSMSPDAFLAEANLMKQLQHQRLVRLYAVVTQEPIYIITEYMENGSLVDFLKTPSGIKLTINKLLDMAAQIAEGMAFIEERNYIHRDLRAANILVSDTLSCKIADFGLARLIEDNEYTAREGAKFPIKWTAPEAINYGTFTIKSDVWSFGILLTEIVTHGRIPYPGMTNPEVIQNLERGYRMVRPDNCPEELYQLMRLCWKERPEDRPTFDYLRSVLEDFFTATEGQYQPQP
FAK, sequence (Q05397 whole entry, the tested form may be a part): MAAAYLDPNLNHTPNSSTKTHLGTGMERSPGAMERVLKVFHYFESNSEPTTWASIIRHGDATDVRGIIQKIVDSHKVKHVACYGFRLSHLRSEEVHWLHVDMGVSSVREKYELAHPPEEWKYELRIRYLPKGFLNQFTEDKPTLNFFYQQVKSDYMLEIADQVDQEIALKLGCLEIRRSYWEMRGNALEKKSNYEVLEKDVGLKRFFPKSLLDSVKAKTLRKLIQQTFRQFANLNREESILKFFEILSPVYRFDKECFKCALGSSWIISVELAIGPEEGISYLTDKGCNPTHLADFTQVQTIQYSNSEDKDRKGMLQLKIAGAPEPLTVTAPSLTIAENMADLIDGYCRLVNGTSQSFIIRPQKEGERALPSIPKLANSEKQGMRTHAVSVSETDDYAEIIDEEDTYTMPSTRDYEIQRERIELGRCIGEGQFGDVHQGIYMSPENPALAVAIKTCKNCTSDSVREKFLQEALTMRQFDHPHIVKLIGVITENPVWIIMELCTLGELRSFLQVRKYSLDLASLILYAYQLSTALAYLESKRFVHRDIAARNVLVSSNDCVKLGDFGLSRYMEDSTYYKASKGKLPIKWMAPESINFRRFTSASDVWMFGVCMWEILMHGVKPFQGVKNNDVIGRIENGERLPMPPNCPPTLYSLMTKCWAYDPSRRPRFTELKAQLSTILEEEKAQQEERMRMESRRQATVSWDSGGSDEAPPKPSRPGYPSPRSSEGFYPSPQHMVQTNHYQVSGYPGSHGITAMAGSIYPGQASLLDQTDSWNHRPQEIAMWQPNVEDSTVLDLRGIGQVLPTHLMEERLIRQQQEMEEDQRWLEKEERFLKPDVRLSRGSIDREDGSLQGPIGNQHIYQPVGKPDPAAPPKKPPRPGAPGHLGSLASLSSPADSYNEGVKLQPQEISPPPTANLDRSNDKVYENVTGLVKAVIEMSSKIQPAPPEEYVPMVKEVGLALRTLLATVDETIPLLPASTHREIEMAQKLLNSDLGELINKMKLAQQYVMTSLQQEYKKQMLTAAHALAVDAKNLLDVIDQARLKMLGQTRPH

`C[C@H]1CNC(=O)c2cnn3ccc(nc23)N[C@H](C)c2cc(F)ccc2O1` [Compound 1, (7S,13R)-11-fluoro-7,13-dimethyl-6,7,13,14-tetrahydro-1,15-ethenopyrazolo[4,3-f][1,4,8,10]benzoxatriazacyclotridecin-4(5H)-one] gave an IC50 [1] of 13.4 nM, an IC50 [2] of 32.3 nM and an IC50 [3] of 512 nM. For the same compound, the IC50 [4] was 98 nM, the IC50 [5] was 20.5 nM and the IC50 [6] was 18.6 nM. The IC50 [7] was 100 nM, the “Tumor growth inhibition (TGI)” value ([8]; 15 mg/kg/BID orally) was 74% and the “mice exhibiting tumor regression” value ([8]; 75 mg/kg BID orally) was 6 of 8. For the same compound, the “tumor regression (REG)” value ([8]; 75 mg/kg BID orally) was 54%, the IC50 [9] was 0.3 nM and the IC50 [10] was 16.4 nM. The IC50 [11] was 5 nM, the IC50 [12] was 4.46 nM and the IC50 [13] was […].
